Tests used:
[1] = test system: Rat dopaminergic neurones; assay: Pre-treatment against MPP+-induced loss of dopaminergic neurones; format: cell-based; conditions: 30 nM, 24 h before and during MPP+ 2 μM 48 h
Protocol: Rat dopaminergic neurones were cultured as previously described (Schinelli et al., Journal of Neurochemistry, 1988, 50, pp. 1900-1907). On day 5, the cultures were washed and placed in fresh medium containing test compounds (30 nM), vehicle (DMSO, 0.25%) or a combination of BDNF (1.85 nM) and GDNF (0.17 nM) for 24 h.
Exposure of rat primary dopaminergic neurones to MPP^+ (2 μM, 24 h) causes a significant decrease in the number of dopaminergic neurones compared to the control. On day 6, MPP^+ (2 μM) was added to the cultures in the presence of test compounds, vehicle or a combination of BDNF and GDNF for a further 48 h. MPP^+ induces neuronal death, via inhibition of complex I in the mitochondria and consequent ATP depletion, resulting in the production of free radicals and induction of apoptosis. After the incubation period, the cultures were fixed with paraformaldehyde in PBS (4%). After fixation, the neurones were permeabilised with Triton ×100 (0.05%) for 30 min. The neurones were then incubated with anti-tyrosine hydroxylase (TH) at 37° C. for 2 h. The neurones were washed three times with PBS, and then incubated with goat anti mouse/Cy3 for 2 h at 37° C. The neurones were mounted and examined with the fluorescence microscopy.

BDNF = assay: Brain BDNF in aged rats (ELISA); format: in vivo, Sprague Dawley (SD) rats; conditions: 18 mg/kg/day oral, 3 months, aged 1.21, young 1.65
Protocol: Old Sprague Dawley (SD) rats (20 month old) were orally administered sarsasapogenin or smilagenin (18 mg/kg/day) for 3 months. […] Young SD rats (4 month old) were used as healthy positive control. At the end of the treatment the brains removed for quantification of BDNF using an ELISA.

[2] = Tissue distribution after a single oral administration, rat; format: in vivo; conditions: 18 mg/kg single oral
[3] = test system: Rat primary dopaminergic neurones; assay: Reversal of MPP+-induced damage in dopaminergic neurones; format: cell-based; conditions: 30 nM for 48 h after MPP+ 2 μM 24 h
Protocol: Rat primary dopaminergic neurones were prepared as described above. On day 5, MPP^+ (2 μM) was added to the cultures for 24 h in culture medium at 37° C. in 5% CO2/95% air atmosphere. Exposure of rat primary dopaminergic neurones to MPP^+ (2 μM, 24 h) causes a significant decrease in the number of dopaminergic neurones compared to the control. On day 6 the medium was removed and fresh medium containing vehicle (DMSO, 0.25%), sarsasapogenin, smilagenin or a combinations of BDNF and GDNF was added. After 48 h, the extent of dopaminergic damage was determined as detailed above.

[4] = test system: Rat spinal motor neurones; assay: Reversal of glutamate-induced damage in spinal motor neurones; format: cell-based
Protocol: The rat spinal motor neurones were prepared as detailed above. On day 10, the medium was removed and the cultures exposed to glutamate (4 μM) for 10 min at 37° C. in 5% CO2/95% air atmosphere in defined medium. After the glutamate exposure, cultures were washed with DMEM at 37° C. then placed in fresh culture medium containing sarsasapogenin, smilagenin, vehicle or BDNF. After 48 h, the extent of motor neurone damage was determined as detailed above. This Example develops the work reported in Example 8 of PCT patent application No. WO-A-03/082893.

Rat cortical neurones = assay: Neuronal survival and neurite outgrowth of cortical neurones cultured in the absence of serum; format: cell-based; conditions: 30 nM, one day, no serum
Protocol: Rat cortical neurones were cultured following the method described above.
The test compounds were added for 24 h.
Rat cortical neurones were exposed to sarsasapogenin, smilagenin (30 nM) or vehicle (DMSO, 0.25%) in the absence FBS or FCS for one day. Cortical neurones were stained using a monoclonal antibody anti β-tubulin diluted and an anti mouse Immunoglobulin G diluted. These antibodies stained neurone cell bodies (quantifying the neuroprotective effect) and neurites (quantifying the neurotrophic effect). An epifluorecence microscope (magnification ×20) with a camera took 2 pictures per well (10 pictures per condition). Analyses of the number of cells labelled with anti β-tubulin antibodies and of the total number of cells was performed using LUCIA 6.0 software.

[5] = test system: Rat spinal motor neurones; assay: Neuronal survival and neurite outgrowth in spinal motor neurones; format: cell-based; conditions: 3 days
Protocol: Rat spinal motor neurones were prepared according to a previously described method (Martinou et al, Neuron, 8, 737-744, 1992). Following 3 days of culturing with sarsasapogenin, smilagenin, vehicle (DMSO, 0.25%), Xaliproden, or BDNF, spinal cord motor neurones were washed twice in PBS, fixed in a cold solution of alcohol (95%) and acetic acid (5%) for 5 min and then rinsed 3 times in PBS. Neurones were stained using a monoclonal antibody anti β-tubulin and an anti mouse Immunoglobulin G. These antibodies stained neurone cell bodies (quantifying the neuroprotective effect) and neurites (quantifying the neurotrophic effect). The cell nuclei were stained by a fluorescent marker. After 1 h of incubation, cells were washed 3 times in PBS. […] A series of pictures were taken using a camera controlled by computer software. All the images were taken under the same conditions. Analyses of the number of cells labelled with anti β-tubulin antibodies and of the total number of cells (number of stained nuclei) were performed using LUCIA 6.0 software.

## C[C@@H]1CC[C@@]2(OC1)O[C@H]1C[C@H]3[C@@H]4CC[C@@H]5C[C@@H](O)CC[C@]5(C)[C@H]4CC[C@]3(C)[C@H]1[C@@H]2C [Smilagenin, smilagenin]
[1]
  Neuronal survival (% of control): 97.91 ± 3.63 % of control
BDNF
  BDNF (ng/g tissue): 1.34 ± 0.07 ng/g tissue
[2]; Rat F, 1 h
  Concentration of compound, Brain: 704 ng equivalents/g tissue
  Concentration of compound, Plasma: 1626 ng equivalents/g tissue
  Concentration of compound, Spinal cord: 608 ng equivalents/g tissue
[2]; Rat F, 4 h
  Concentration of compound, Brain: 2330 ng equivalents/g tissue
  Concentration of compound, Plasma: 1824 ng equivalents/g tissue
  Concentration of compound, Spinal cord: 2049 ng equivalents/g tissue
[2]; Rat F, 8 h
  Concentration of compound, Brain: 2940 ng equivalents/g tissue
  Concentration of compound, Plasma: 1658 ng equivalents/g tissue
  Concentration of compound, Spinal cord: 2823 ng equivalents/g tissue
[2]; Rat F, 24 h
  Concentration of compound, Brain: 954 ng equivalents/g tissue
  Concentration of compound, Plasma: 394 ng equivalents/g tissue
  Concentration of compound, Spinal cord: 1284 ng equivalents/g tissue
[2]; Rat F, 168 h
  Concentration of compound, Brain: 52 ng equivalents/g tissue
  Concentration of compound, Plasma: 46 ng equivalents/g tissue
  Concentration of compound, Spinal cord: 243 ng equivalents/g tissue
[2]; Rat M, 1 h
  Concentration of compound, Brain: 769 ng equivalents/g tissue
  Concentration of compound, Plasma: 2045 ng equivalents/g tissue
  Concentration of compound, Spinal cord: 958 ng equivalents/g tissue
[2]; Rat M, 4 h
  Concentration of compound, Brain: 3372 ng equivalents/g tissue
  Concentration of compound, Plasma: 3842 ng equivalents/g tissue
  Concentration of compound, Spinal cord: 3286 ng equivalents/g tissue
[2]; Rat M, 8 h
  Concentration of compound, Brain: 4457 ng equivalents/g tissue
  Concentration of compound, Plasma: 3896 ng equivalents/g tissue
  Concentration of compound, Spinal cord: 4520 ng equivalents/g tissue
[2]; Rat M, 24 h
  Concentration of compound, Brain: 1417 ng equivalents/g tissue
  Concentration of compound, Plasma: 857 ng equivalents/g tissue
  Concentration of compound, Spinal cord: 1957 ng equivalents/g tissue
[2]; Rat M, 168 h
  Concentration of compound, Brain: 122 ng equivalents/g tissue
  Concentration of compound, Plasma: 122 ng equivalents/g tissue
  Concentration of compound, Spinal cord: 256 ng equivalents/g tissue
[3]
  Neuronal survival (% of control): 113.44 ± 4.62 % of control
[4]; 0.03 nM for 48 h after glutamate 4 μM 10 min
  Neuronal survival (% of control): 90.98 ± 2.46 % of control
[4]; 3 nM for 48 h after glutamate 4 μM 10 min
  Neuronal survival (% of control): 101.53 ± 3.18 % of control
[4]; 300 nM for 48 h after glutamate 4 μM 10 min
  Neuronal survival (% of control): 106.61 ± 4.24 % of control
Rat cortical neurones
  Neurite outgrowth (% of control): 173.89 ± 9.23 % of control
  Neuronal survival (% of control): 155.36 ± 4.75 % of control
[5]; 30 nM
  Neurite outgrowth (% of control): 163.66 ± 9.28 % of control
  Neuronal survival (% of control): 120.11 ± 2.92 % of control
[5]; 100 nM
  Neurite outgrowth (% of control): 164.75 ± 5.57 % of control
  Neuronal survival (% of control): 121.21 ± 2.75 % of control

Source: patent US20120034193A1, “TREATMENT OF NEUROTROPHIC FACTOR MEDIATED DISORDERS” (priority 2009, published 2012)
